ChEMBL document CHEMBL1150624, “Discovery of natural products from Curcuma longa that protect cells from beta-amyloid insult: a drug discovery effort against Alzheimer's disease” (2002)
≈ marks a conversion by molar mass, not a printed value.

How the values were obtained:
PC-12 [1] = assay: Protection against beta-amyloid (1 to 42) insult in rat PC12 cells assessed as viable cells after 24 hrs by MTT assay; assay type: functional; details: PC-12, 24 h, read-out: ED50 (the source's name)
PC-12 [2] = assay: Protection against beta-amyloid (25 to 35) insult in rat PC12 cells assessed as viable cells after 24 hrs by MTT assay; assay type: functional; details: PC-12, 24 h, read-out: ED50 (the source's name)

## COc1cc(/C=C/C(=O)CC(=O)/C=C/c2ccc(O)c(OC)c2)ccc1O [CURCUMIN]
PC-12 [1]
  EC50: 10 µg/mL (≈ 27.1 µM)
PC-12 [2]
  EC50: 7 µg/mL (≈ 19 µM)

## O=C(/C=C/c1ccc(O)cc1)CC(=O)/C=C/c1ccc(O)cc1 [BISDEMETHOXYCURCUMIN]
PC-12 [1]
  EC50: 3.5 µg/mL (≈ 11.4 µM)
PC-12 [2]
  EC50: 2 µg/mL (≈ 6.49 µM)

## COc1cc(/C=C/C(=O)CC(=O)CC(O)c2ccc(O)c(OC)c2)ccc1O (stereo not given)
PC-12 [1]
  EC50: 44.3 µg/mL (≈ 115 µM)
PC-12 [2]
  EC50: 30.7 µg/mL (≈ 79.5 µM)

## COc1cc(/C=C/C=C/C(=O)/C=C/c2ccc(O)c(OC)c2)ccc1O
PC-12 [1]
  EC50: > 50 µg/mL
PC-12 [2]
  EC50: > 50 µg/mL

## COc1cc(/C=C/C(O)=C/C(=O)/C=C/c2ccc(O)cc2)ccc1O [DEMETHOXYCURCUMIN]
PC-12 [1]
  EC50: 5 µg/mL (≈ 14.8 µM)
PC-12 [2]
  EC50: 4 µg/mL (≈ 11.8 µM)

## O=C(/C=C/c1ccc(O)cc1)CC(=O)CCc1ccc(O)cc1
PC-12 [1]
  EC50: 1 µg/mL (≈ 3.22 µM)
PC-12 [2]
  EC50: 0.5 µg/mL (≈ 1.61 µM)

## O=C(/C=C/C=C/c1ccc(O)cc1)/C=C/c1ccc(O)cc1
PC-12 [1]
  EC50: > 50 µg/mL
PC-12 [2]
  EC50: > 50 µg/mL

## COc1cc(/C=C/C(=O)/C=C/c2ccc(O)c(OC)c2)ccc1O
PC-12 [1]
  EC50: > 50 µg/mL
PC-12 [2]
  EC50: > 50 µg/mL

## Nc1c(/N=N/c2ccc(-c3ccc(/N=N/c4cc(S(=O)(=O)[O-])c5ccccc5c4N)cc3)cc2)cc(S(=O)(=O)[O-])c2ccccc12.[Na+].[Na+] [CONGO RED]
PC-12 [1]
  EC50: 39.2 µg/mL
PC-12 [2]
  EC50: 37.5 µg/mL

## COc1cc(/C=C/C(=O)COC(=O)/C=C/c2ccc(O)c(OC)c2)ccc1O [CALEBI A]
PC-12 [1]
  EC50: 2 µg/mL (≈ 5.2 µM)
PC-12 [2]
  EC50: 1 µg/mL (≈ 2.6 µM)
